# Measured values: US20150212068A1, “Cholyl-L-Lysyl-Fluorescein Assay” (Novassay SA, priority 2012, published 2015)
# Entries after “also recorded” stand apart in the source; their conditions may differ. Marks after values point to notes of the source that are not given here.
# Tests used:
# [1] = Stability of CLF in whole human blood at 37° C. (Test 1), HPLC-MS/MS; format: in vitro ADME; conditions: for CLF concentration: whole human blood spiked 100 ng/ml, mean ± SEM (n = 2); for CLF remaining: whole human blood, vs To
# Procedure: Fifty microliters (50 μl) of the working solution of CLF were added to 5 ml of human EDTA blood. The final concentration of CLF in blood was of 100 ng/ml. One aliquot of 1 ml of blood was taken (To) and the remaining solution was incubated at 37° C. in a water bath for 30 min, 120 min and 24 h. At the end of each incubation time, 1 ml of blood was taken and plasma was prepared by centrifugation of samples at 2000 g (4° C.) for 10 min. Two equal aliquots of 200 μl were prepared and stored at −70° C. until further analysis. […] Thus, a stock solution of IS at 100 μg/ml in acetonitrile was 50-fold diluted in acetonitrile in order to obtain a final concentration of 2 μg/ml. Then, 200 μl of this solution were added to each plasma sample in order to precipitate the proteins. Samples were vortexed/mixed and centrifuged 5 min at 20,000 g (4° C.). After centrifugation, the clear supernatant (around 250 μl) was transferred into 1.2 ml HPLC glass vials and sealed. Samples were placed into the refrigerated autosampler and 20 μl were injected into the HPLC-MS/MS system. Test samples were injected twice. […] The injected volume of sample was 20 μl and the “full loop” mode was applied. The temperature of the analytical column was kept at 30° C. CLF and its IS were separated on an Acclaim 120 C18 column (5 μm, 2.1×100 mm, Dionex) by elution with a linear gradient of acetonitrile in water as described in Table 6. An ion trap mass spectrometer equipped with an ESI interface was operated in the positive ionization mode. For each compound, the most abundant ion formed in MS was selected for MS/MS fragmentations. In order to increase the sensitivity and the specificity of the method, the MRM mode was selected. The most specific daughter ions formed in MS/MS were used for quantification.
# [2] = Quantification of CLF in 5 human plasma samples by HPLC-MS/MS with calibration curves from SS CLF-MetOH and SS CLF-EtOH; format: physicochemical
# Procedure: Two working solutions of CLF were prepared. […] Five human plasma samples, spiked with CLF from both working solutions, were prepared for HPLC-MS/MS analysis. These samples (named S1, S2, S3, S4 and S5) were thawed at room temperature, extemporaneously, and 100 μl of each were transferred in appropriate tubes. The HPLC-MS/MS analysis was conducted with two calibration curves, constituted with 7 single points (non zero). The first one was prepared by serial dilutions in methanol of the working solution named SS CLF-MetOH. The second one was prepared by serial dilutions in methanol of the working solution named SS CLF-EtOH. Both working solutions were centrifuged 5 min at 3000 g before dilutions. These dilutions of CLF in methanol allowed obtaining the 10× standard solutions used for standard sample preparation. Then, calibration curves were prepared by adding 10 μl of the concentrated standard solutions to 90 μl of free-drug human plasma. The final concentrations of calibrators were of 1000, 500, 250, 100, 25, 5 and 1 ng/ml. […] The contents of CLF were determined in 5 human plasma samples provided, according to the standard curve generated from both separate working solutions. […] The content of CLF was semi-quantified using data previously obtained. The UV response at 254 nm was used for semi-quantification. […] The differences between both quantifications were also evaluated as follows: […]
# [3] = Solubility and stability of CLF in working solutions by HPLC-UV-MS (254 nm); format: physicochemical; conditions: [CLF] = 50 μg/ml
# Procedure: HPLC separation was operated with a mixture of water and acetonitrile containing 0.1% of formic acid and the reversed phase mode was selected. The injected volume of sample was 20 μl and the “full loop” mode was applied. The temperature of the analytical column was kept at 30° C. CLF, its metabolites and its IS were separated on a SunFire C18 column (5 μm, 2.1×100 mm, Waters) by elution with a linear gradient of acetonitrile in water as described in Table 62.
# The wavelength of UV detector was scaled at 254 nm. An ion trap mass spectrometer equipped with electrospray ionization (ESI) interface was operated in positive ionization mode. Detection was carried out in the following modes: • MS mode (full scan) in positive ESI for analysis of working and treatment solutions and metabolites identification, • MS/MS mode (MRM, multiple reaction monitoring) in positive ESI for qualitative analysis of CLF, its IS and its metabolites. Briefly, specific parent ions formed for CLF, its IS and its identified metabolites were selected for MS/MS fragmentations.
# Two working solutions of CLF were prepared. The first was prepared in 100% methanol for a final concentration of CLF at 109.6 μg/ml (SS CLF-MetOH) and the second was prepared in aqueous ethanol (water/ethanol/sodium hydroxide (50%), at 1000/500/30, v/v/v) for a final concentration of CLF at 71.6 μg/ml (SS CLF-EtOH).
# Working solution used during this study were centrifuged 5 min at 3000 g and then diluted in a methanol/water mixture (50/50, v/v) in order to obtain three homogeneous solutions at 50 μg/ml. Then, 200 μl were transferred into 1.2 ml HPLC glass vials and sealed. Samples were placed into the refrigerated auto-sampler and 20 μl were injected into the HPLC-UV-MS system.
# A blank sample was included (methanol/water, 50/50, v/v) to clearly distinguish interferences and impurities. The UV detection (scaled at 254 nm) allowed evaluating the solubility of CLF in both solvents by comparing CLF chromatographic peak areas. In case of signs of instability (additional chromatographic peaks), MS and then MS/MS (if needed) detections allowed to identify the impurities formed.
compound,measurement,setting,value
"CC(CCC(=O)NC(CCCCNC(=S)Nc1ccc(-c2c3ccc(=O)cc-3oc3cc(O)ccc23)c(C(=O)O)c1)C(=O)O)C1CCC2C3C(O)CC4CC(O)CCC4(C)C3CC(O)C12C [CLF, Cholyl-L-Lysyl-Fluorescein]",CLF stability in whole human blood,"[1]; 37° C., 24 hours, 100 ng/ml",stable during 24 h; also recorded: stable over 24 hours
same,plasmatic concentrations measured,"[1]; whole blood spiked with 100 ng/ml, 37° C., 0-24 h",165.1 to 180.3 ng/mL
same,repartition of CLF in blood,"[1]; whole blood spiked with CLF, plasma prepared by centrifugation",mainly distributed in the plasmatic fraction; also recorded: mainly distributed in the plasma fraction
same,"percentage of compound remaining (by comparing with content at To), lowest over incubation","[1]; whole blood, 37° C., up to 24 h",at least 104.1%
same,CLF concentration,"[1]; 37° C., 0.0 hours, plasmatic concentration",165.1 ± 2.6 ng/mL
same,CLF concentration,"[1]; 37° C., 0.5 hours",171.9 ± 6.7 ng/mL
same,CLF concentration,"[1]; 37° C., 2.0 hours",180.3 ± 7.4 ng/mL
same,CLF concentration,"[1]; 37° C., 24.0 hours",173.8 ± 1.7 ng/mL
same,CLF remaining,"[1]; 37° C., 0.0 hours",100.0%
same,CLF remaining,"[1]; 37° C., 0.5 hours",104.1%
same,CLF remaining,"[1]; 37° C., 2.0 hours",109.2%
same,CLF remaining,"[1]; 37° C., 24.0 hours",105.3%
same,quantitative value of CLF prepared in methanol (100%) relative to CLF prepared in aqueous ethanol (higher by),"[2]; EtOH:H2O:NaOH (50%) 500:1000:30, both immunoassay and HPLC methodologies",approximately 40%
same,tautomerization of CLF,[2]; isomeric form of SS CLF-EtOH not detected in standard samples in human plasma,reversible and depends on the pH of the medium; also recorded: reversible and is dependent on the pH of the medium
same,"Peak Area, UV detection (254 nm)","[3]; Aqueous ammonium bicarbonate solution (0.1M), other batch of CLF",5305.5*
same,peak area of CLF in aqueous ethanol mixture relative to methanol and aqueous ammonium bicarbonate 0.1 M (fold lower),"[3]; HPLC-UV 254 nm, water/ethanol/sodium hydroxide working solution",around 10 fold
same,"Peak Area, UV detection (254 nm)",[3]; SS CLF-EtOH working solution,470.9
same,"Peak Area, UV detection (254 nm)",[3]; SS CLF-MetOH working solution,4395.1
